Where “and” joins values, the source holds several entries; their conditions need not be identical. Equal values may be shown once.
Tested on: kidney tissues of treated or untreated rats
Test: Real-time qRT-PCR of marker transcripts in kidney tissue panel, discovery stage (Table 22)
Assay type: in vivo, rat
Design: AI502869_DB71_seg0 normalized Real Time PCR expression: unit not given beside the values
Details: listed as Cis; for H33998_DB71_seg19 normalized Real Time PCR / MUSCYCG1R_DB81_seg15-17 normalized Real Time PCR / RATLRFI_DB71_seg9 normalized Real Time PCR / RATRAB13X_DB71_seg11-13 normalized Real Time PCR / RNU24174_DB71_seg8 normalized Real Time PCR / W41270_DB81_seg11 normalized Real Time PCR / W64472_DB81_seg2 normalized Real Time PCR / W83813_DB81_seg27 normalized Real Time PCR / AA686189_DB71_seg6 normalized Real Time PCR expression / AA799594_DB71_seg0 normalized Real Time PCR expression / AA964541_DB71_seg0 normalized Real Time PCR expression / AI045075_DB71_seg6 normalized Real Time PCR expression / AI454051_DB71_seg0 normalized Real Time PCR expression / AI502869_DB71_seg0 normalized Real Time PCR expression / AW919147_DB71_seg0 normalized Real Time PCR expression / BI293562_DB71_seg2 normalized Real Time PCR expression / H31045_DB71_seg5 normalized Real Time PCR expression / H31799_DB71_seg23 normalized Real Time PCR expression / H31883_DB71_seg13 normalized Real Time PCR expression: rat kidney
Protocol: Before RT preparation the RNA was treated with DNA-free (Ambion, cat. No. AM1906) DNase treatment and removal—according to manufacturer protocol. DNase procedure was repeated until no DNA is detected in a PCR reaction using the RNA samples.
The mixture is then incubated for 5 min at 65° C. and then quickly chilled on ice. Thereafter, 20 μl of 5× SuperscriptII first strand buffer (Invitrogen, Cat. No. Y00146), 9.6 μl 0.1M DTT (Invitrogen, Cat. No. Y00147) and 160 units RNasin (Promega, Cat. No. N251A) are added, and the mixture is incubated for 10 min at 25° C., followed by further incubation at 42° C. for 2 min. […] The resulting cDNA is diluted 1:20 in TE buffer (10 mM Tris pH=8, 1 mM EDTA pH=8).
cDNA (5 μl), prepared as described above, is used as a template in Real-Time PCR reactions using the SYBR Green I assay (PE Applied Biosystem) with specific primers in 100 nM concentration if not indicated otherwise and UNG Enzyme (Eurogentech or equal) Amplification is effected as follows: 50° C. for 2 min, 95° C. for 10 min, and then 40 cycles of 95° C. for 15 sec, followed by 60° C. for 1 min (if not indicated otherwise). Amplification step is followed by dissociation step. Detection is performed by using the PE Applied Biosystem SDS 7000. The cycle in which the reactions achieved a threshold level (Ct) of fluorescence is registered and is used to calculate the relative transcript quantity in the RT reactions. Non-detected samples are assigned Ct value of 41 and are calculated accordingly. The relative quantity is calculated using the equation Q=efficiencŷ-Ct. The efficiency of the PCR reaction is calculated from a standard curve, created by using serial dilutions of several reverse transcription (RT) reactions. To minimize inherent differences in the RT reaction, the resulting relative quantities are normalized to normalization factor calculated as follows: […]
The relative quantity (Q) of each housekeeping gene in each sample is calculated as described above. In order to calculate the “relative Q relative to MED” each Q for each HSKP gene is divided by the median quantity of this gene in all panel samples. To finally achieve the normalization factor of each sample the geometric mean of all four “relative Q relative to MED” was calculated. The normalization factor was then used for further calculations.
The markers of the present invention were tested with regard to their expression in a panel of kidney tissues samples from treated and control rats. Unless otherwise noted, all experimental data relates to the novel polynucleotides and proteins of the present invention, named according to the segment being tested (as expression was tested through RT-PCR as described). Tests were then performed as described in the “Materials and Experimental Procedures” section above.
The qRT-PCR measurements were normalized according to each samples normalization factor as described in “RT Preparation and Real-Time qRT-PCR Analysis” and further multiplied by a constant factor for ease of viewing.

[1] = day1, individual animals (F and M)
[2] = day5, individual animals (F and M)
[3] = day28, individual animals (F and M)

## N.N.[Cl][Pt][Cl] [Cisplatin]
kidney, female rats, day1
  normalized Real Time PCR MUSCYCG1R_DB81_seg19-20: 0.86 and 0.81
  normalized Real Time PCR RATRAB13X_DB81_seg15-17: 0.82 and 1.11 and 1.1
  normalized Real Time PCR RATRAB13X_DB81_seg22: 0.88 and 0.87 and 1.02
  normalized Real Time PCR W33294_DB81_seg44: 1 and 0.95
kidney, female rats, day5
  normalized Real Time PCR MUSCYCG1R_DB81_seg19-20: 2.77 and 3.44 and 2.45
  normalized Real Time PCR RATRAB13X_DB81_seg15-17: 1.37 and 1.53
  normalized Real Time PCR RATRAB13X_DB81_seg22: 1.71 and 1.92 and 1.99
  normalized Real Time PCR W33294_DB81_seg23: 2.03 and 1.99 and 1.58
  normalized Real Time PCR W33294_DB81_seg44: 2.31 and 2.19 and 2.15
kidney, female rats, day28
  normalized Real Time PCR MMU09507_DB81_seg15: 8.1 and 6.58 and 5.53
  normalized Real Time PCR MUSCYCG1R_DB81_seg19-20: 1.64 and 2.47 and 1.67
  normalized Real Time PCR RATRAB13X_DB81_seg15-17: 1.33
  normalized Real Time PCR RATRAB13X_DB81_seg22: 0.61 and 0.65 and 0.89
  normalized Real Time PCR W33294_DB81_seg23: 0.95 and 0.97 and 0.82
kidney, male rats, day1
  normalized Real Time PCR MUSCYCG1R_DB81_seg19-20: 0.85 and 0.71 and 1.18
  normalized Real Time PCR RATRAB13X_DB81_seg15-17: 0.73 and 0.84 and 0.98
  normalized Real Time PCR RATRAB13X_DB81_seg22: 0.65 and 0.66 and 1.11
  normalized Real Time PCR W33294_DB81_seg23: 0.59 and 0.49 and 0.64
  normalized Real Time PCR W33294_DB81_seg44: 0.6 and 0.84 and 0.96
kidney, male rats, day5
  normalized Real Time PCR MUSCYCG1R_DB81_seg19-20: 1.83 and 1.47 and 2.33
  normalized Real Time PCR RATRAB13X_DB81_seg15-17: 1.8 and 1.03 and 1.77
  normalized Real Time PCR RATRAB13X_DB81_seg22: 1.53 and 1.2
  normalized Real Time PCR W33294_DB81_seg44: 1.47 and 1.51
kidney, male rats, day28
  normalized Real Time PCR MUSCYCG1R_DB81_seg19-20: 2.13 and 1.97 and 2.21
  normalized Real Time PCR RATRAB13X_DB81_seg15-17: 0.95
  normalized Real Time PCR RATRAB13X_DB81_seg22: 0.66 and 0.76 and 0.65
  normalized Real Time PCR W33294_DB81_seg23: 0.95 and 0.82 and 0.88
  normalized Real Time PCR W33294_DB81_seg44: 0.83 and 0.89
[1]
  H33998_DB71_seg19 normalized Real Time PCR: 0.85 and 1 and 0.87 and 0.65 and 0.75 and 1.14
  MUSCYCG1R_DB81_seg15-17 normalized Real Time PCR: 0.77 and 0.85 and 0.72 and 0.54 and 0.35 and 0.67
  RATLRFI_DB71_seg9 normalized Real Time PCR: 1.49 and 0.3 and 0.57 and 0.24 and 0.2 and 0.37
  RATRAB13X_DB71_seg11-13 normalized Real Time PCR: 0.91 and 1.09 and 0.87 and 1.15
  RNU24174_DB71_seg8 normalized Real Time PCR: 0.57 and 0.32 and 0.36 and 0.2 and 0.27 and 0.69
  W41270_DB81_seg11 normalized Real Time PCR: 1.11 and 0.86 and 0.76 and 0.33 and 0.63 and 0.71
  W64472_DB81_seg2 normalized Real Time PCR: 0.8 and 0.54 and 0.55 and 0.3 and 0.51 and 0.92
  W83813_DB81_seg27 normalized Real Time PCR: 1.1 and 0.97 and 0.99 and 0.5 and 0.66 and 0.94
day1, individual animals
  AA686189_DB71_seg6 normalized Real Time PCR expression: 0.7 and 0.44 and 0.66 and 0.48 and 0.42 and 0.68
  AA799594_DB71_seg0 normalized Real Time PCR expression: 0.39 and 0.98 and 0.59 and 0.99 and 0.87
  AA964541_DB71_seg0 normalized Real Time PCR expression: 0.88 and 0.58 and 0.41 and 0.4 and 0.29 and 0.56
  AI045075_DB71_seg6 normalized Real Time PCR expression: 1.01 and 0.68 and 0.79 and 0.64 and 0.62 and 1.09
  AI454051_DB71_seg0 normalized Real Time PCR expression: 0.94 and 1.22 and 1 and 0.65 and 0.96 and 1.45
  AI502869_DB71_seg0 normalized Real Time PCR expression: 0.67 and 0.78 and 0.74 and 0.87 (2×) and 0.84
  AW919147_DB71_seg0 normalized Real Time PCR expression: 0.8 and 1.09 and 0.87 (2×) and 0.88
  BI293562_DB71_seg2 normalized Real Time PCR expression: 0.74 and 0.5 and 0.38 and 0.7 and 0.39 and 0.71
  H31045_DB71_seg5 normalized Real Time PCR expression: 0.24 and 0.28 and 0.22 and 0.82 and 0.21 and 1.22
  H31799_DB71_seg23 normalized Real Time PCR expression: 1.03 and 1.09 and 1.22
  H31883_DB71_seg13 normalized Real Time PCR expression: 2.03 and 0.74 and 0.71 and 1.52
[2]
  H33998_DB71_seg19 normalized Real Time PCR: 1.79 and 1.84 and 1.95 and 1.49 and 0.46 and 2.14
  MUSCYCG1R_DB81_seg15-17 normalized Real Time PCR: 3.12 and 3.59 and 2.07 and 2.31 and 0.92 and 2.34
  RATLRFI_DB71_seg9 normalized Real Time PCR: 0.79 and 0.44 and 0.32 and 0.65 and 0.34 and 1.97
  RATRAB13X_DB71_seg11-13 normalized Real Time PCR: 1.01 and 1.02 and 0.74
  RNU24174_DB71_seg8 normalized Real Time PCR: 0.97 and 0.7 and 0.6 and 1.3 and 0.31 and 3.6
  W41270_DB81_seg11 normalized Real Time PCR: 1.97 and 1.9 and 1.79 and 1.51 and 3.12
  W64472_DB81_seg2 normalized Real Time PCR: 2.23 and 2.1 and 1.99 and 2.64 and 0.95 and 4.55
  W83813_DB81_seg27 normalized Real Time PCR: 2.12 (2×) and 2.25 and 1.39 and 0.94 and 1.41
day5, individual animals
  AA686189_DB71_seg6 normalized Real Time PCR expression: 0.93 and 0.76 and 1.5 and 0.69 and 4.48
  AA799594_DB71_seg0 normalized Real Time PCR expression: 1.34 and 1.11 and 0.93 and 0.71 and 0.75
  AA964541_DB71_seg0 normalized Real Time PCR expression: 0.99 and 0.74 and 0.76 and 1.94 and 0.67 and 4.8
  AI045075_DB71_seg6 normalized Real Time PCR expression: 0.86 and 0.53 and 0.76 and 1.93 and 0.81 and 1.33
  AI454051_DB71_seg0 normalized Real Time PCR expression: 1.43 and 1.39 and 0.92 and 0.86
  AI502869_DB71_seg0 normalized Real Time PCR expression: 0.8 and 0.93 and 0.74 and 0.52 and 0.61
  AW919147_DB71_seg0 normalized Real Time PCR expression: 1.39 and 0.83 and 0.8 and 0.88
  BI293562_DB71_seg2 normalized Real Time PCR expression: 0.74 and 0.67 and 0.7 and 3.45 and 0.81 and 1.76
  H31045_DB71_seg5 normalized Real Time PCR expression: 1.8 and 0.34 and 0.51 and 3.25 and 0.23 and 1.66
  H31799_DB71_seg23 normalized Real Time PCR expression: 1.1 and 0.74 and 1.23 and 0.92
  H31883_DB71_seg13 normalized Real Time PCR expression: 1.44 and 1.2 and 1.73 and 1.3 and 2.43
[3]
  H33998_DB71_seg19 normalized Real Time PCR: 0.55 and 0.69 and 0.85 and 0.61 and 0.62 and 0.41
  MUSCYCG1R_DB81_seg15-17 normalized Real Time PCR: 1.96 and 2.57 and 2.7 and 2.09 and 2.31 and 1.93
  RATLRFI_DB71_seg9 normalized Real Time PCR: 2.33 and 3.05 and 3.8 and 3.03 and 2.4 and 2.26
  RATRAB13X_DB71_seg11-13 normalized Real Time PCR: 1.62 and 1.78 and 1.57 and 1.24 and 1.31
  RNU24174_DB71_seg8 normalized Real Time PCR: 8.38 and 12.63 and 12.14 and 10.21 and 7.3 and 8.08
  W41270_DB81_seg11 normalized Real Time PCR: 1.45 (2×) and 1.8 and 1.48 and 1.94 and 1.11
  W64472_DB81_seg2 normalized Real Time PCR: 1.81 and 3.16 and 2.87 and 2.8 and 3.04 and 1.65
  W83813_DB81_seg27 normalized Real Time PCR: 0.71 and 0.7 and 0.78 and 0.51 (2×) and 0.57
day28, individual animals
  AA686189_DB71_seg6 normalized Real Time PCR expression: 0 and 3.57 and 6.06 and 3.15 and 4.29 and 3.86
  AA799594_DB71_seg0 normalized Real Time PCR expression: 0.74 and 0.64 and 0.52 and 0.36 and 0.97 and 0.62
  AA964541_DB71_seg0 normalized Real Time PCR expression: 2.63 and 5.28 and 6.85 and 3.72 and 4.71 and 3.97
  AI045075_DB71_seg6 normalized Real Time PCR expression: 2.17 and 3.09 and 3.37 and 3.18 and 2.72 and 1.57
  AI454051_DB71_seg0 normalized Real Time PCR expression: 0.68 and 0.8 and 0.87 and 0.73 and 0.82 and 0.78
  AI502869_DB71_seg0 normalized Real Time PCR expression: 1.03 (2×) and 0.74 and 1.35 and 0.95
  AW919147_DB71_seg0 normalized Real Time PCR expression: 0.54 (2×) and 0.72 and 0.66 and 0.84
  BI293562_DB71_seg2 normalized Real Time PCR expression: 5.98 and 12.27 and 8.01 and 6.24 and 2.93 and 3.33
  H31045_DB71_seg5 normalized Real Time PCR expression: 0.73 (2×) and 0.81 and 0.88 and 2.92 and 2.96
  H31799_DB71_seg23 normalized Real Time PCR expression: 1.15 and 0.98 and 0.88 and 0.9
  H31883_DB71_seg13 normalized Real Time PCR expression: 2.72 and 4.07 and 3.83 and 2.41 and 3.37 and 2.23
